Assay results reported in US9648876B2, “Method of inhibiting biofilm formation” (Research Foundation of the City University of New York, priority 2015, dated 2017).
Read-outs that look alike come from different tables or passages of the source.

How the values were obtained:
[1] = tested on: C. albicans DAY185 planktonic cells; test: Planktonic cell growth and viability; type: cell-based, Candida albicans; details: 0.06 μg per ml
Method: Small arrows (FIG. 1B and FIG. 1C) denote chains of yeast cells. Note the microcolonies apparent in the control culture at 3 hours (FIG. 2B) and 9 hours (FIG. 2C) denoted by the large arrows. […] Under these conditions, some yeast cells formed short linear chains, but there were few germ tubes, and the culture never developed true hyphae. […] When germ tubes were allowed to emerge before treatment with xanthochymol, the germ tubes elongated and branched for several hours. In contrast, when C. albicans DAY185 planktonic cells were grown in YPD in the presence or absence of either Garcinia benzophenone (70 μg per ml), there was no significant effect on the growth or viability.

[2] = tested on: C. albicans mature biofilms; test: Established (mature, 24-h) biofilm susceptibility (XTT reduction, LIVE/DEAD confocal microscopy)
Method: LIVE/DEAD staining of the biofilm was performed and dead cells were quantified in confocal micrographs.
(§1) Candida albicans was subcultured onto Sabouraud dextrose agar (per liter: peptone 10 g, dextrose 40 g, agar 15 g; pH of 5.6) and incubated at 30° C. for 24 h. One colony was then added to yeast extract-peptone-dextrose (YPD; 1% yeast extract, 2% peptone, 2% dextrose) and incubated with shaking at 30° C. and 170 rpm for 16 h, after which cells were harvested, washed in phosphate-buffered saline (PBS), and diluted to a standard inoculum of 1.0×10^6 cells per ml.
(§2) For biofilm assays in microtiter plates, 100 μl of a standard inoculum of C. albicans cells (1.0×10^6 cells per ml) was added to the wells of a 96-well plate in triplicate, and the cells were allowed to adhere for 90 min at 37° C. After incubation, the plates were washed twice with PBS to remove nonattached cells. Then 100 μl of RPMI 1640 with L-glutamine, without sodium bicarbonate (GIBCO®), buffered to pH 7.0 with 165 mM morpholinepropanesulfonic acid (MOPS) was added to each well, and the plates were incubated at 37° C. for 24 h. Early-stage biofilms were prepared essentially as above, with the exception that the cells were induced to form biofilms for either 3 or 6 h prior to treatment.
Fluconazole was obtained from Sigma. All drugs were dissolved in dimethyl sulfoxide (DMSO).
Menadione and XTT [2,3-bis-(2-methoxy-4-nitro-5-sulfophenyl)-2H-tetrazolium-5-carboxyanilide] were obtained from Sigma-Aldrich. After a drug challenge, the wells were washed twice with PBS, and then 100 μl of XTT-menadione solution was added to the wells, and plates incubated in the dark for 1 h at 37° C. The absorbance of wells at 490 nm was read using a microplate reader (Biotec/Synergy software).
Candida albicans biofilms were treated with or without test compounds for various times, depending on the experimental design, after which the cells were prepared for microscopy by staining with the BacLight yeast viability kit, the contents of which include Syto-9 and propidium iodide (Molecular Probes, Eugene, Oreg.) according to the manufacturer's instructions. Confocal images were obtained using an Olympus FluoView10i microscope and a filter set for Syto-9 and propidium iodide. Overlays included phase contrast images. All confocal images were processed using ImageJ.
Biofilm viability was assayed by XTT reduction and calculated as follows:
[formula] where background wells contained XTT solution only; untreated wells received cells only, with no added drug.

[3] = tested on: C. albicans early biofilms; type: cell-based, Candida albicans; details: fluconazole at 32 μg per ml, FIG. 3
Method: as §1
as §2, with “Early-stage biofilms were prepared essentially as above, with the exception that the cells were induced to form biofilms for either 3 or 6 h prior to treatment.” left out
Menadione and XTT [2,3-bis-(2-methoxy-4-nitro-5-sulfophenyl)-2H-tetrazolium-5-carboxyanilide] were obtained from Sigma-Aldrich. […] The absorbance of wells at 490 nm was read using a microplate reader (Biotec/Synergy software). […]
Biofilm viability was assayed by XTT reduction and calculated as follows: […]

[4] = biological target: histone acetyltransferase (HAT) p300 (Homo sapiens, UniProt Q09472); details: cited from earlier work
histone acetyltransferase (HAT) p300, sequence (Q09472 whole entry): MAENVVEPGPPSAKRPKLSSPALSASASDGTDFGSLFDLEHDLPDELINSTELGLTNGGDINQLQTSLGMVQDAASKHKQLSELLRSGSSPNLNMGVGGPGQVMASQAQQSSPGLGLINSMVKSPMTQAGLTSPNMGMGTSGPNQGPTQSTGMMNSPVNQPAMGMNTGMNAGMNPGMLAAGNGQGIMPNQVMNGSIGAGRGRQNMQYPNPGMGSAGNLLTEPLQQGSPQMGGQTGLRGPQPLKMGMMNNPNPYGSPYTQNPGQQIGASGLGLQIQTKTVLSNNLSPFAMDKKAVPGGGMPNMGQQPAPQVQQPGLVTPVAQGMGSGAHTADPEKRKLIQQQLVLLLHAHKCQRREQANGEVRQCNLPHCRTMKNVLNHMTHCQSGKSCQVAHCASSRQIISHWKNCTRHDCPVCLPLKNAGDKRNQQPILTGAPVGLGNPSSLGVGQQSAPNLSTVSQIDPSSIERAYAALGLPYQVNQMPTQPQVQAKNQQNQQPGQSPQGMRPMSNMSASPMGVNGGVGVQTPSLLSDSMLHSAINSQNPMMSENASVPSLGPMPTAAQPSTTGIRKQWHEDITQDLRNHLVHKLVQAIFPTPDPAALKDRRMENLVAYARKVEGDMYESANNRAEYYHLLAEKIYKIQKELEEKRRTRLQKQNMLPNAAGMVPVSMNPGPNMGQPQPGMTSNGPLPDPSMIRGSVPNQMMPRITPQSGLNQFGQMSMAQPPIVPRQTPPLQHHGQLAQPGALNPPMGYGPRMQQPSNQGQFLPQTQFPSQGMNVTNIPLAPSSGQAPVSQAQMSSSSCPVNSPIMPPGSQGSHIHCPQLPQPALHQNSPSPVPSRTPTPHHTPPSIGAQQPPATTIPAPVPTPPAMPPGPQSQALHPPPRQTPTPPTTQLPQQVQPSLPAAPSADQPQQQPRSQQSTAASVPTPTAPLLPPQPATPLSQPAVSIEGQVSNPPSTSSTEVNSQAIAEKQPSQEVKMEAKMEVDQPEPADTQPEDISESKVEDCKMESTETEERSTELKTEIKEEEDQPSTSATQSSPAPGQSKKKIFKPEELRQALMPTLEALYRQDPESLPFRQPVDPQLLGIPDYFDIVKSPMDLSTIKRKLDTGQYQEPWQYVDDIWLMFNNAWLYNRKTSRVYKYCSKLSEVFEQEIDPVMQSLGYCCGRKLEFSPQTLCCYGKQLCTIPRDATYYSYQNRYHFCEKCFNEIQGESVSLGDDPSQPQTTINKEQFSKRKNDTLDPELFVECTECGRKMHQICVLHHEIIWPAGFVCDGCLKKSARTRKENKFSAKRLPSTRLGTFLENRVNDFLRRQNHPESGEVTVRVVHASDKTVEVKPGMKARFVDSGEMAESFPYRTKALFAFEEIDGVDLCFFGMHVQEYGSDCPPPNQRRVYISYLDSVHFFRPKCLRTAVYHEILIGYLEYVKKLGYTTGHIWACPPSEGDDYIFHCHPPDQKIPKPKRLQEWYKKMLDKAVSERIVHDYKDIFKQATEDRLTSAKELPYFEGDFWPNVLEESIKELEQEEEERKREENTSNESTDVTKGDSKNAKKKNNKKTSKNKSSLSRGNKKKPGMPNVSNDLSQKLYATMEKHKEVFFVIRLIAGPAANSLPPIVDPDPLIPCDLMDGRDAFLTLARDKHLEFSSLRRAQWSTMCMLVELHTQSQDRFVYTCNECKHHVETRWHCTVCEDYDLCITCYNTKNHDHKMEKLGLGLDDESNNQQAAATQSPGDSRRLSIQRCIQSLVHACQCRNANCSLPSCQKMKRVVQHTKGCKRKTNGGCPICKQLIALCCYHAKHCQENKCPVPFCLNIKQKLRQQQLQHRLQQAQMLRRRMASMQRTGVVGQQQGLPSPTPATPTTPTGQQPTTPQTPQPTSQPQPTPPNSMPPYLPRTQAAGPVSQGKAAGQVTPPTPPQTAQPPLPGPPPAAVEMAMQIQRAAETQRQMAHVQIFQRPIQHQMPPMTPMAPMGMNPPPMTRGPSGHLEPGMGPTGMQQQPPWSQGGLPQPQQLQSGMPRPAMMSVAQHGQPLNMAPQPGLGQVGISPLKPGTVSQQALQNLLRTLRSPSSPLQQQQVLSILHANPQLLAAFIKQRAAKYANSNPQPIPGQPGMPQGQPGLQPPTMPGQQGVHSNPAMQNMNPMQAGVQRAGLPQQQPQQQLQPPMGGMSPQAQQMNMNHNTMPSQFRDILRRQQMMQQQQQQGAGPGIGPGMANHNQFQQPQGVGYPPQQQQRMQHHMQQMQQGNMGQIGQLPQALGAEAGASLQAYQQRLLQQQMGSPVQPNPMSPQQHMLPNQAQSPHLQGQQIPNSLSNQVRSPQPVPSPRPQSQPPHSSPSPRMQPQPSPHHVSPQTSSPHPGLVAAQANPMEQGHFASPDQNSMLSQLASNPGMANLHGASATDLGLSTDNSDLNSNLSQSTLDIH

pCAF = pCAF (Homo sapiens, UniProt Q92831); details: cited from earlier work
pCAF, sequence (Q92831 whole entry, species assumed): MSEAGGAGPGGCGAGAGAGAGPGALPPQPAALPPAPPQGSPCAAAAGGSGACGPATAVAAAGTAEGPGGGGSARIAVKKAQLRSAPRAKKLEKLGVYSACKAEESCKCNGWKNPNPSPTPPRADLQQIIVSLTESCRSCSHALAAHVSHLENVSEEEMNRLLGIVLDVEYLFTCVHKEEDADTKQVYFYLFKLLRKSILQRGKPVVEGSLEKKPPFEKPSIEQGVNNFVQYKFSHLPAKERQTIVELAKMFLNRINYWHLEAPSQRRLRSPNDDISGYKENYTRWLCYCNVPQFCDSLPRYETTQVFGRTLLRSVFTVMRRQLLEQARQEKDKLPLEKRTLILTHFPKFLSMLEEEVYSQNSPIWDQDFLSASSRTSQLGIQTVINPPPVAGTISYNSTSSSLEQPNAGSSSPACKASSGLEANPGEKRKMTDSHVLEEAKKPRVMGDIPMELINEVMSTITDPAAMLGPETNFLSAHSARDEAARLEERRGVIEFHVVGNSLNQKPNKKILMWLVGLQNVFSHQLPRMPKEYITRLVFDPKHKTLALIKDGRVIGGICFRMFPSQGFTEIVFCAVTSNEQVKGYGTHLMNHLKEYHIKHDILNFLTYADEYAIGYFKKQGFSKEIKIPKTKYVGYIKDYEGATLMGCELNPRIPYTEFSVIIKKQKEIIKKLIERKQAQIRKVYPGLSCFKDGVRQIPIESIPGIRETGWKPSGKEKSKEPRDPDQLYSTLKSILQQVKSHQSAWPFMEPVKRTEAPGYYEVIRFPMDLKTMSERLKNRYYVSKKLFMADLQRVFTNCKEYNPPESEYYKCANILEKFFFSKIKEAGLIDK

CC[C@H](C)C[C@H](C)CCCCCCCCC(=O)N[C@H]1C[C@@H](O)[C@@H](NCCN)NC(=O)[C@@H]2[C@@H](O)CCN2C(=O)[C@H]([C@H](O)CCN)NC(=O)[C@H]([C@H](O)[C@@H](O)c2ccc(O)cc2)NC(=O)[C@@H]2C[C@@H](O)CN2C(=O)[C@H]([C@@H](C)O)NC1=O [caspofungin]
killing of planktonic yeast phase cells [1]: showed killing | killing of biofilm (positive control) ([2]; 0.06 μg per ml): less effective against a biofilm

OC(Cn1cncn1)(Cn1cncn1)c1ccc(F)cc1F [fluconazole]
killing of biofilm cells by microscopy ([2]; 24-h biofilms, 24 h of exposure, confocal LIVE/DEAD): minimal effect | reduction in viability ([2]; 24-h biofilms, fluconazole as high as 1,024 μg per ml, XTT assay): 15% | IC50 ([2]; Candida albicans, 24 h, read-out: fluconazole IC50): 13 mg/L | EC50 ([2]; Candida albicans, read-out: fluconazole EC50, mature biofilms, fluconazole alone): > 1020 mg/L | EC50 ([2]; Candida albicans, read-out: fluconazole EC50, mature biofilms, with xanthochymol): 13 mg/L | reduction of biofilm activity [3]: 20%

C=C(C)CC[C@@H](C[C@@]12C[C@@H](CC=C(C)C)C(C)(C)[C@@](CC=C(C)C)(C(=O)C(C(=O)c3ccc(O)c(O)c3)=C1O)C2=O)C(=C)C [garcinol]
inhibition of HAT p300 [4]: micromolar concentrations | inhibition of pCAF (pCAF): micromolar concentrations
